Assay results: US20070099237A1, “Reaction co-crystallization of molecular complexes or co-crystals” (The Regents of The University of Michigan, priority 2005, published 2007)
Values after ≈ are worked out from the molar mass of the structure shown. Where two headings read alike, the source gives them in different places.

Assay: Solubility of co-crystal and reactants in organic solvents at 25° C.
Format: physicochemical
Details: mean +/− deviation; for solubility: organic solvent or mixture, thermodynamic from solid
Method: The predicted reduction in solubility of the co-crystal is borne out experimentally as illustrated, for example in FIG. 4, which uses the carbamazepine nicotinamide 1:1 co-crystal (CBZ:NCT) for illustration. The CBZ:NCT co-crystal is known; solubilities for the co-crystal and the reactants CBZ and NCT in three solvents (ethanol, […]) are given in the table.
Solubilities are given at 25° C. and are expressed as the mean +/− the deviation for a sample size of 3. It is noted that only in ethyl acetate is the co-crystal the least soluble component. Accordingly, the co-crystal can be precipitated from equimolar solutions of CBZ and NCT in ethyl acetate to produce the co-crystal by cooling or evaporation methods.

[1] = 2-propanol, sample size 3, read-out: Solubility in 2-Propanol
[2] = ethanol, sample size 3, read-out: Solubility in Ethanol
[3] = ethyl acetate, sample size 3, read-out: Solubility in Ethyl acetate

solubility [1]	solubility [2]	solubility [3]	Solubility in 2-Propanol (2-propanol, sample size 3)	Solubility in Ethanol (ethanol, sample size 3)	Solubility in Ethyl acetate (ethyl acetate, sample size 3)	SMILES
496 ± 4 mM (≈ 60.6 mg/mL)	841 ± 8 mM (≈ 103 mg/mL)	98 ± 2 mM (≈ 12 mg/mL)	–	–	–	NC(=O)c1cccnc1 [NCT(I), Nicotinamide]
39 ± 3 mM (≈ 9.21 mg/mL)	108 ± 0.1 mM (≈ 25.5 mg/mL)	44 ± 0.1 mM (≈ 10.4 mg/mL)	–	–	–	NC(=O)N1c2ccccc2C=Cc2ccccc21 [CBZ(III), carbamazepine]
–	–	–	44 ± 3 mM	116 ± 3 mM	24 ± 1 mM	NC(=O)N1c2ccccc2C=Cc2ccccc21.NC(=O)c1cccnc1 [CBZ:NCT, Carbamazepine:Nicotinamide co-crystal]
